{"source": "patent US20250115596A1", "about": "“ESTERS OF 8-METHYL-8-AZABICYCLO[3.2.1] OCTAN-3-YL 3-HYDROXY-2-PHENYLPROPANOATE” (ADS Therapeutics LLC, priority 2022, published 2025)", "key": {"physchem": {"assay": "physchem", "settings": "organic solvent or mixture, thermodynamic from solid"}, "Dutch Belted rabbits": {"test_system": "Dutch Belted rabbits", "assay": "In vivo pharmacology study: pupil size after topical ocular instillation of eye drop formulation", "settings": "for pupil size change from baseline: female Dutch Belted rabbits; for retention of pupil dilation during the measurement period: measured up to 24 hour after dosing", "description": "The test compound was administered to each animal by topical ocular instillation of 40 μL of eye drop formulation just once at day 1. The pupil size of both eyes of all animals were measured at baseline (30 minutes before dosing), 0.5 hour, 1 hour, 2 hour, 4 hour, 6 hour, 8 hour, 12 hour, and 24 hour after dosing. Pupil sizes were measured in both eyes of all animals on 3 separate days during acclimation prior to dosing initiation. Set the light intensity in the procedure room so that the animal's pupil size was about 6-7 mm. Light intensity of the procedure room for pupil size measurement should be maintained constant throughout the pupil size measurement procedures in the study. Pupil size change from baseline was calculated for each eye of each individual animal separately for each postdose timepoint. Mean and standard error of pupil size change from baseline were calculated for each group per postdose timepoint and plotted mean of pupil change from baseline against timepoint comparisons."}, "[1]": {"settings": "0.4% formulation in F6H8, single 40 μL eye drop"}}, "note": "Structures can show the parent of a compound that is named as a salt.", "data": [{"smiles": "CCCCCC=CCCC(=O)OCC(C(=O)O[C@H]1C[C@H]2CC[C@@H](C1)N2C)c1ccccc1", "note": "(some centres unmarked) [Compound 13, atropine dec-4-enoate]", "values": [{"measurement": "solubility at 30 min", "setting": "physchem", "result": 4900, "unit": "µg/mL"}]}, {"smiles": "CCCCCCCC/C=C\\CCCCCCCC(=O)OCC(C(=O)O[C@H]1C[C@H]2CC[C@@H](C1)N2C)c1ccccc1", "note": "(stereo partly drawn) [Compound 1, 3-(((1R,3r,5S)-8-methyl-8-azabicyclo[3.2.1]octan-3-yl)oxy)-3-oxo-2-phenylpropyl (9Z)-octadec-9-enoate]", "values": [{"measurement": "solubility at 30 min", "setting": "physchem", "result": 5000, "unit": "µg/mL"}, {"measurement": "pupil size change from baseline", "setting": "Dutch Belted rabbits; [1]", "result": "comparable pupil size dilation as the 0.01% atropine sulfate monohydrate"}, {"measurement": "retention of pupil dilation during the measurement period", "setting": "Dutch Belted rabbits; [1]", "result": "retained the pupil dilation throughout the measurement period"}]}, {"smiles": "CC(C)CCC[C@@H](C)[C@H]1CC[C@H]2[C@@H]3CC=C4C[C@@H](O)CC[C@]4(C)[C@H]3CC[C@]12C", "note": "[cholesterol, reference compound]", "values": [{"measurement": "solubility at 30 min", "setting": "physchem; perfluorohexyloctane (F6H8)", "result": 79.7, "unit": "µg/mL"}]}, {"smiles": "CCCCCCCCCCCCCCCCCC(=O)O[C@H]1CC[C@@]2(C)C(=CC[C@H]3[C@@H]4CC[C@H]([C@H](C)CCCC(C)C)[C@@]4(C)CC[C@@H]32)C1", "note": "[cholesteryl stearate, reference compound]", "values": [{"measurement": "solubility at 30 min", "setting": "physchem", "result": 26.2, "unit": "µg/mL"}]}, {"smiles": "CN1[C@@H]2CC[C@H]1C[C@@H](OC(=O)C(CO)c1ccccc1)C2", "note": "(some centres unmarked) [atropine sulfate monohydrate, reference compound]", "values": [{"measurement": "pupil size change from baseline", "setting": "Dutch Belted rabbits; 0.01% in normal saline, single 40 μL eye drop, 1 hour or 2 hour post-dose", "result": "about 5%"}]}, {"smiles": "CCCCCCCCCCCCCCCC(=O)OCC(C(=O)O[C@H]1C[C@H]2CC[C@@H](C1)N2C)c1ccccc1", "note": "(some centres unmarked) [Compound 7, atropine palmitate]", "values": [{"measurement": "solubility at 30 min", "setting": "physchem", "result": 5610, "unit": "µg/mL"}]}, {"smiles": "CCCCC/C=C\\C/C=C\\CCCCCCCC(=O)OCC(C(=O)O[C@H]1C[C@H]2CC[C@@H](C1)N2C)c1ccccc1", "note": "(stereo partly drawn) [Compound 2, 3-(((1R,3r,5S)-8-methyl-8-azabicyclo[3.2.1]octan-3-yl)oxy)-3-oxo-2-phenylpropyl (9Z,12Z)-octadeca-9,12-dienoate]", "values": [{"measurement": "solubility at 30 min", "setting": "physchem", "result": 3870, "unit": "µg/mL"}, {"measurement": "pupil size change from baseline", "setting": "Dutch Belted rabbits; [1]", "result": "over 10%"}, {"measurement": "retention of pupil dilation during the measurement period", "setting": "Dutch Belted rabbits; [1]", "result": "remained significantly dilated from baseline during the measurement period"}]}]}
